From patent US9963442B2, “Pyridones as herbicides” (E I DU PONT DE NEMOURS AND COMPANY, priority 2014, dated 2018)

What was measured:
Type in all cases: in vivo
Conditions in all cases: scale 0 to 100, 0 is no effect, 100 is complete control
[1] = system: morningglory (Ipomoea coccinea); experiment: Test C postemergence
Summary of the method: (§1)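 Surfactant-containing, non-phytotoxic solvent formulation applied either to soil right after sowing (loam/sand) or over the top of emerged plants 2–18 cm tall. Effects were scored visually after 13–15 days, where 0 means no effect and 100 complete control.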

[2] = system: waterhemp (common waterhemp, Amaranthus rudis); experiment: Test C postemergence
Summary of the method: as §1

[3] = system: blackgrass (Alopecurus myosuroides); experiment: Test C postemergence
Summary of the method: as §1

[4] = system: barnyardgrass (Echinochloa crus-galli); experiment: Test C postemergence
Summary of the method: as §1

corn (Zea mays) [5] = experiment: Test C postemergence
Summary of the method: as §1

[6] = system: lambsquarters (Chenopodium album); experiment: Test C postemergence
Summary of the method: as §1

kochia (Kochia scoparia) = experiment: Test C postemergence
Summary of the method: as §1

soybean (Glycine max) = experiment: Test C postemergence
Summary of the method: as §1

[7] = system: velvetleaf (Abutilon theophrasti); experiment: Test C postemergence
Summary of the method: as §1

[8] = system: chickweed (common chickweed, Stellaria media); experiment: Test C postemergence
Summary of the method: as §1

[9] = system: large (Lg) crabgrass (Digitaria sanguinalis); experiment: Test C postemergence
Summary of the method: as §1

[10] = system: Italian ryegrass (Lolium multiflorum); experiment: Test C postemergence
Summary of the method: as §1

[11] = system: pigweed (Amaranthus retroflexus); experiment: Test C postemergence
Summary of the method: as §1

[12] = system: winter wheat (Triticum aestivum); experiment: Test C postemergence
Summary of the method: as §1

wild oat (Avena fatua) = experiment: Test C postemergence
Summary of the method: as §1

[13] = system: yellow nutsedge (Cyperus esculentus); experiment: Test C postemergence
Summary of the method: as §1

[14] = system: morningglory (Ipomoea coccinea); experiment: Test C preemergence
Summary of the method: as §1

[15] = system: giant foxtail (Setaria faberii); experiment: Test C preemergence
Summary of the method: as §1

[16] = system: barnyardgrass (Echinochloa crus-galli); experiment: Test C preemergence
Summary of the method: as §1

corn (Zea mays) [17] = experiment: Test C preemergence
Summary of the method: as §1

[18] = system: Italian ryegrass (Lolium multiflorum); experiment: Test C preemergence
Summary of the method: as §1

[19] = system: pigweed (Amaranthus retroflexus); experiment: Test C preemergence
Summary of the method: as §1

[20] = system: yellow nutsedge (Cyperus esculentus); experiment: Test C preemergence
Summary of the method: as §1

## O=c1cccc(Oc2ncc(Cl)cn2)n1-c1ccc(C(F)(F)F)cc1 [Compound 10]
[1]; 16 g ai/ha
  Plant response rating, Morningglory: 50
[1]; 31 g ai/ha
  Plant response rating, Morningglory: 55
[1]; 62 g ai/ha
  Plant response rating, Morningglory: 70
[1]; 125 g ai/ha
  Plant response rating, Morningglory: 75
[2]; 16 g ai/ha
  Plant response rating, Waterhemp: 75
[2]; 31 g ai/ha
  Plant response rating, Waterhemp: 80
[2]; 62 g ai/ha
  Plant response rating, Waterhemp: 98
[2]; 125 g ai/ha
  Plant response rating, Waterhemp: 98
[3]; 16 g ai/ha
  Plant response rating, Blackgrass: 10
[3]; 31 g ai/ha
  Plant response rating, Blackgrass: 10
[3]; 62 g ai/ha
  Plant response rating, Blackgrass: 30
[3]; 125 g ai/ha
  Plant response rating, Blackgrass: 25
[4]; 16 g ai/ha
  Plant response rating, Barnyardgrass: 5
[4]; 31 g ai/ha
  Plant response rating, Barnyardgrass: 10
[4]; 62 g ai/ha
  Plant response rating, Barnyardgrass: 25
[4]; 125 g ai/ha
  Plant response rating, Barnyardgrass: 65
Corn (Zea mays) [5]; 16 g ai/ha
  Plant response rating, Corn: 20
Corn (Zea mays) [5]; 31 g ai/ha
  Plant response rating, Corn: 15
Corn (Zea mays) [5]; 62 g ai/ha
  Plant response rating, Corn: 25
Corn (Zea mays) [5]; 125 g ai/ha
  Plant response rating, Corn: 25
[6]; 16 g ai/ha
  Plant response rating, Lambsquarters: 65
[6]; 31 g ai/ha
  Plant response rating, Lambsquarters: 75
[6]; 62 g ai/ha
  Plant response rating, Lambsquarters: 75
[6]; 125 g ai/ha
  Plant response rating, Lambsquarters: 90
Kochia (Kochia scoparia); 16 g ai/ha
  Plant response rating, Kochia: 85
Kochia (Kochia scoparia); 31 g ai/ha
  Plant response rating, Kochia: 90
Kochia (Kochia scoparia); 62 g ai/ha
  Plant response rating, Kochia: 90
Kochia (Kochia scoparia); 125 g ai/ha
  Plant response rating, Kochia: 95
Soybean (Glycine max); 16 g ai/ha
  Plant response rating, Soybean: 40
Soybean (Glycine max); 31 g ai/ha
  Plant response rating, Soybean: 40
Soybean (Glycine max); 62 g ai/ha
  Plant response rating, Soybean: 65
Soybean (Glycine max); 125 g ai/ha
  Plant response rating, Soybean: 55
[7]; 16 g ai/ha
  Plant response rating, Velvetleaf: 15
[7]; 31 g ai/ha
  Plant response rating, Velvetleaf: 35
[7]; 62 g ai/ha
  Plant response rating, Velvetleaf: 60
[7]; 125 g ai/ha
  Plant response rating, Velvetleaf: 65
[8]; 16 g ai/ha
  Plant response rating, Chickweed: 70
[8]; 31 g ai/ha
  Plant response rating, Chickweed: 30
[8]; 62 g ai/ha
  Plant response rating, Chickweed: 70
[8]; 125 g ai/ha
  Plant response rating, Chickweed: 80
[9]; 16 g ai/ha
  Plant response rating, Crabgrass, Large: 25
[9]; 31 g ai/ha
  Plant response rating, Crabgrass, Large: 35
[9]; 62 g ai/ha
  Plant response rating, Crabgrass, Large: 60
[9]; 125 g ai/ha
  Plant response rating, Crabgrass, Large: 80
[10]; 16 g ai/ha
  Plant response rating, Ryegrass, Italian: 5
[10]; 31 g ai/ha
  Plant response rating, Ryegrass, Italian: 5
[10]; 62 g ai/ha
  Plant response rating, Ryegrass, Italian: 10
[10]; 125 g ai/ha
  Plant response rating, Ryegrass, Italian: 20
[11]; 16 g ai/ha
  Plant response rating, Pigweed: 70
[11]; 31 g ai/ha
  Plant response rating, Pigweed: 90
[11]; 62 g ai/ha
  Plant response rating, Pigweed: 80
[11]; 125 g ai/ha
  Plant response rating, Pigweed: 90
[12]; 16 g ai/ha
  Plant response rating, Wheat: 0
[12]; 31 g ai/ha
  Plant response rating, Wheat: 5
[12]; 62 g ai/ha
  Plant response rating, Wheat: 10
[12]; 125 g ai/ha
  Plant response rating, Wheat: 10
Wild oat (Avena fatua); 16 g ai/ha
  Plant response rating, Oat, Wild: 0
Wild oat (Avena fatua); 31 g ai/ha
  Plant response rating, Oat, Wild: 5
Wild oat (Avena fatua); 62 g ai/ha
  Plant response rating, Oat, Wild: 15
Wild oat (Avena fatua); 125 g ai/ha
  Plant response rating, Oat, Wild: 25
[13]; 16 g ai/ha
  Plant response rating, Nutsedge, Yellow: 5
[13]; 31 g ai/ha
  Plant response rating, Nutsedge, Yellow: 10
[13]; 62 g ai/ha
  Plant response rating, Nutsedge, Yellow: 15
[13]; 125 g ai/ha
  Plant response rating, Nutsedge, Yellow: 20
[14]; 16 g ai/ha
  Plant response rating, Morningglory: 0
[14]; 31 g ai/ha
  Plant response rating, Morningglory: 0
[14]; 62 g ai/ha
  Plant response rating, Morningglory: 15
[14]; 125 g ai/ha
  Plant response rating, Morningglory: 55
[15]; 16 g ai/ha
  Plant response rating, Foxtail, Giant: 55
[15]; 31 g ai/ha
  Plant response rating, Foxtail, Giant: 90
[15]; 62 g ai/ha
  Plant response rating, Foxtail, Giant: 100
[15]; 125 g ai/ha
  Plant response rating, Foxtail, Giant: 100
[16]; 16 g ai/ha
  Plant response rating, Barnyardgrass: 15
[16]; 31 g ai/ha
  Plant response rating, Barnyardgrass: 55
[16]; 62 g ai/ha
  Plant response rating, Barnyardgrass: 75
[16]; 125 g ai/ha
  Plant response rating, Barnyardgrass: 98
Corn (Zea mays) [17]; 16 g ai/ha
  Plant response rating, Corn: 0
Corn (Zea mays) [17]; 31 g ai/ha
  Plant response rating, Corn: 0
Corn (Zea mays) [17]; 62 g ai/ha
  Plant response rating, Corn: 10
Corn (Zea mays) [17]; 125 g ai/ha
  Plant response rating, Corn: 5
[18]; 16 g ai/ha
  Plant response rating, Ryegrass, Italian: 0
[18]; 31 g ai/ha
  Plant response rating, Ryegrass, Italian: 10
[18]; 62 g ai/ha
  Plant response rating, Ryegrass, Italian: 90
[18]; 125 g ai/ha
  Plant response rating, Ryegrass, Italian: 85
[19]; 16 g ai/ha
  Plant response rating, Pigweed: 55
[19]; 31 g ai/ha
  Plant response rating, Pigweed: 65
[19]; 62 g ai/ha
  Plant response rating, Pigweed: 100
[19]; 125 g ai/ha
  Plant response rating, Pigweed: 100
[20]; 16 g ai/ha
  Plant response rating, Nutsedge, Yellow: 0
[20]; 31 g ai/ha
  Plant response rating, Nutsedge, Yellow: 0
[20]; 62 g ai/ha
  Plant response rating, Nutsedge, Yellow: 0
[20]; 125 g ai/ha
  Plant response rating, Nutsedge, Yellow: 0
